In brackets after ≈: the same amount, converted by molar mass. Blank lines part the entries; values can stand above or below the molecule they belong to.
Assays:
Assay in all cases: In vitro antibacterial evaluation: minimum inhibitory concentration (MIC), broth dilution method
Type in all cases: cell-based
Escherichia coli = details: 18 hours at 35° C.
In short: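 Using Muller-Hinton II […] and an inoculum of 5×10^5 CFU/mL, antibiotic dilutions from 64 down to 0.06 μg/mL were tested following NCCLS M7-A2. The MIC is the lowest concentration inhibiting growth, including in methicillin-, penicillin- or vancomycin-resistant clinical isolates.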

Staphylococcus sp. = details: for MIC Staphylococcus aureus (ATCC 29213): strain ATCC 29213; for MIC Staphylococcus aureus (GC 1131): strain GC 1131; for MIC Staphylococcus aureus (GC 3051): strain GC 3051; for MIC Staphylococcus aureus (GC 3053): strain GC 3053; for MIC Staphylococcus aureus (GC 4541): strain GC 4541; for MIC Staphylococcus aureus (GC 4542): strain GC 4542; for MIC Staphylococcus aureus-SMITH (GC 4543): strain GC 4543; for MIC Staphylococcus aureus (GC 4544): strain GC 4544; for MIC Staphylococcus aureus (GC 4545): strain GC 4545; for MIC Staphylococcus haemolyticus (GC 4546): strain GC 4546; for MIC Coagulase Negative Staphylococcus (GC 4547): strain GC 4547; for MIC Coagulase Negative Staphylococcus (GC 4548): strain GC 4548; for MIC Coagulase Negative Staphylococcus (GC 4549): strain GC 4549; for MIC Coagulase Negative Staphylococcus (GC 4551): strain GC 4551
In short: (§1)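 MIC read as lowest drug level preventing visible growth. Organisms at 5×10^5 CFU/mL were exposed to a 64-0.06 μg/mL dilution series in Muller-Hinton II […] following NCCLS broth dilution standard M7-A2.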

Enterococcus sp. = details: 18 hours at 35° C.
In short: as §1

Streptococcus sp. = details: 18 hours at 35° C.
In short: as §1

[1] = Enterococcus faecalis (ATCC 29212)
[2] = Enterococcus faecalis (GC 2242)
[3] = Enterococcus faecalis (GC 2691)
[4] = Enterococcus faecalis (GC 3059)
[5] = Enterococcus faecalis (GC 4552)
[6] = Enterococcus faecalis (GC 4553)
[7] = Enterococcus faecalis (GC 4554)
[8] = Enterococcus faecalis (GC 6189)
[9] = broth dilution, inoculum 5×10^5 CFU/mL
[10] = Streptococcus agalactiae (GC 4564)
[11] = Streptococcus pneumoniae (ATCC 6301)
[12] = Streptococcus pneumoniae (GC 1894)
[13] = Streptococcus pneumoniae (GC 4565)
[14] = Streptococcus pyogenes (GC 4563)

MIC Escherichia coli (ATCC 25922) (Escherichia coli): 64 µg/mL (≈ 46.5 µM)
MIC Escherichia coli (GC 4559) (Escherichia coli): 32 µg/mL (≈ 23.3 µM)
MIC Escherichia coli (GC 4560) (Escherichia coli): 1 µg/mL (≈ 0.727 µM)
MIC Staphylococcus aureus (ATCC 29213) (Staphylococcus sp.): 2 µg/mL (≈ 1.45 µM)
MIC Staphylococcus aureus (GC 1131) (Staphylococcus sp.): 2 µg/mL (≈ 1.45 µM)
MIC Staphylococcus aureus (GC 3051) (Staphylococcus sp.): 1 µg/mL (≈ 0.727 µM)
MIC Staphylococcus aureus (GC 3053) (Staphylococcus sp.): 2 µg/mL (≈ 1.45 µM)
MIC Staphylococcus aureus (GC 4541) (Staphylococcus sp.): 2 µg/mL (≈ 1.45 µM)
MIC Staphylococcus aureus (GC 4542) (Staphylococcus sp.): 1 µg/mL (≈ 0.727 µM)
MIC Staphylococcus aureus-SMITH (GC 4543) (Staphylococcus sp.): 1 µg/mL (≈ 0.727 µM)
MIC Staphylococcus aureus (GC 4544) (Staphylococcus sp.): 2 µg/mL (≈ 1.45 µM)
MIC Staphylococcus aureus (GC 4545) (Staphylococcus sp.): 1 µg/mL (≈ 0.727 µM)
MIC Coagulase Negative Staphylococcus (GC 4547) (Staphylococcus sp.): 2 µg/mL (≈ 1.45 µM)
MIC Coagulase Negative Staphylococcus (GC 4548) (Staphylococcus sp.): 0.5 µg/mL (≈ 0.364 µM)
MIC Coagulase Negative Staphylococcus (GC 4549) (Staphylococcus sp.): 0.5 µg/mL (≈ 0.364 µM)
MIC Coagulase Negative Staphylococcus (GC 4551) (Staphylococcus sp.): 1 µg/mL (≈ 0.727 µM)
MIC Enterococcus avium (GC 4558) (Enterococcus sp.; Enterococcus avium (GC 4558)): 2 µg/mL (≈ 1.45 µM)
MIC Enterococcus faecalis (ATCC 29212) (Enterococcus sp.; [1]): 4 µg/mL (≈ 2.91 µM)
MIC Enterococcus faecalis (GC 2242) (Enterococcus sp.; [2]): 2 µg/mL (≈ 1.45 µM)
MIC Enterococcus faecalis (GC 2691) (Enterococcus sp.; [3]): 4 µg/mL (≈ 2.91 µM)
MIC Enterococcus faecalis (GC 3059) (Enterococcus sp.; [4]): 4 µg/mL (≈ 2.91 µM)
MIC Enterococcus faecalis (GC 4552) (Enterococcus sp.; [5]): 4 µg/mL (≈ 2.91 µM)
MIC Enterococcus faecalis (GC 4553) (Enterococcus sp.; [6]): 4 µg/mL (≈ 2.91 µM)
MIC Enterococcus faecalis (GC 4554) (Enterococcus sp.; [7]): 4 µg/mL (≈ 2.91 µM)
MIC Enterococcus faecalis (GC 6189) (Enterococcus sp.; [8]): 2 µg/mL (≈ 1.45 µM)
MIC Enterococcus faecium (GC 2243) (Enterococcus sp.; Enterococcus faecium (GC 2243)): 4 µg/mL (≈ 2.91 µM)
MIC Enterococcus faecium (GC 4556) (Enterococcus sp.; Enterococcus faecium (GC 4556)): 4 µg/mL (≈ 2.91 µM)
MIC Enterococcus faecium (GC 4557) (Enterococcus sp.; Enterococcus faecium (GC 4557)): 2 µg/mL (≈ 1.45 µM)
MIC Enterococcus avium (GC 4558) (Enterococcus sp.; [9]): 2 µg/mL (≈ 1.45 µM)
MIC Enterococcus faecalis (ATCC 29212) (Enterococcus sp.; [9]): 4 µg/mL (≈ 2.91 µM)
MIC Enterococcus faecalis (GC 2242) (Enterococcus sp.; [9]): 2 µg/mL (≈ 1.45 µM)
MIC Enterococcus faecalis (GC 2691) (Enterococcus sp.; [9]): 4 µg/mL (≈ 2.91 µM)
MIC Enterococcus faecalis (GC 3059) (Enterococcus sp.; [9]): 4 µg/mL (≈ 2.91 µM)
MIC Enterococcus faecalis (GC 4552) (Enterococcus sp.; [9]): 4 µg/mL (≈ 2.91 µM)
MIC Enterococcus faecalis (GC 4553) (Enterococcus sp.; [9]): 4 µg/mL (≈ 2.91 µM)
MIC Enterococcus faecalis (GC 4554) (Enterococcus sp.; [9]): 4 µg/mL (≈ 2.91 µM)
MIC Enterococcus faecalis (GC 6189) (Enterococcus sp.; [9]): 2 µg/mL (≈ 1.45 µM)
MIC Enterococcus faecium (GC 2243) (Enterococcus sp.; [9]): 4 µg/mL (≈ 2.91 µM)
MIC Enterococcus faecium (GC 4556) (Enterococcus sp.; [9]): 4 µg/mL (≈ 2.91 µM)
MIC Enterococcus faecium (GC 4557) (Enterococcus sp.; [9]): 2 µg/mL (≈ 1.45 µM)
MIC Streptococcus agalactiae (GC 4564) (Streptococcus sp.; [10]): <0.12 µg/mL
MIC Streptococcus pneumoniae (ATCC 6301) (Streptococcus sp.; [11]): <0.12 µg/mL
MIC Streptococcus pneumoniae (GC 1894) (Streptococcus sp.; [12]): <0.12 µg/mL
MIC Streptococcus pneumoniae (GC 4565) (Streptococcus sp.; [13]): <0.12 µg/mL
MIC Streptococcus pyogenes (GC 4563) (Streptococcus sp.; [14]): <0.12 µg/mL
MIC Streptococcus agalactiae (GC 4564) (Streptococcus sp.; [9]): <0.12 µg/mL
MIC Streptococcus pneumoniae (ATCC 6301) (Streptococcus sp.; [9]): <0.12 µg/mL
MIC Streptococcus pneumoniae (GC 1894) (Streptococcus sp.; [9]): <0.12 µg/mL
MIC Streptococcus pneumoniae (GC 4565) (Streptococcus sp.; [9]): <0.12 µg/mL
MIC Streptococcus pyogenes (GC 4563) (Streptococcus sp.; [9]): <0.12 µg/mL
Structure (SMILES): N=C1NCC(C(O)C2NC(=O)C(Cc3ccc(OC4OC(CO)C(OC5OC6COC(c7ccccc7)OC6C(O)C5O)C(O)C4O)cc3)NC(=O)C(CC3CCCCC3)NC(=O)CNC(=O)C(CO)NC(=O)C(C(O)C3CNC(=N)N3C3OC(CO)C(O)C(O)C3O)NC2=O)N1 (stereo not drawn) [Example 199, Cyclo[3-cyclohexylalanyl-O-[4-O-(4,6-O-benzylidenehexopyranosyl)hexopyranosyl]tyrosyl-3-(2-iminoimidazolidin-4-yl)seryl-3-(3-hexopyranosyl-2-iminoimidazolidin-4-yl)-seryl-serylglycyl]]
MIC Staphylococcus haemolyticus (GC 4546) (Staphylococcus sp.): 1 µg/mL (≈ 0.727 µM)

MIC Escherichia coli (ATCC 25922) (Escherichia coli): 32 µg/mL (≈ 23 µM)
MIC Escherichia coli (GC 4559) (Escherichia coli): 32 µg/mL (≈ 23 µM)
MIC Escherichia coli (GC 4560) (Escherichia coli): 1 µg/mL (≈ 0.72 µM)
MIC Staphylococcus aureus (ATCC 29213) (Staphylococcus sp.): 1 µg/mL (≈ 0.72 µM)
MIC Staphylococcus aureus (GC 1131) (Staphylococcus sp.): 2 µg/mL (≈ 1.44 µM)
MIC Staphylococcus aureus (GC 3051) (Staphylococcus sp.): 1 µg/mL (≈ 0.72 µM)
MIC Staphylococcus aureus (GC 3053) (Staphylococcus sp.): 2 µg/mL (≈ 1.44 µM)
MIC Staphylococcus aureus (GC 4541) (Staphylococcus sp.): 1 µg/mL (≈ 0.72 µM)
MIC Staphylococcus aureus (GC 4542) (Staphylococcus sp.): 1 µg/mL (≈ 0.72 µM)
MIC Staphylococcus aureus-SMITH (GC 4543) (Staphylococcus sp.): 1 µg/mL (≈ 0.72 µM)
MIC Staphylococcus aureus (GC 4544) (Staphylococcus sp.): 2 µg/mL (≈ 1.44 µM)
MIC Staphylococcus aureus (GC 4545) (Staphylococcus sp.): 1 µg/mL (≈ 0.72 µM)
MIC Coagulase Negative Staphylococcus (GC 4547) (Staphylococcus sp.): 2 µg/mL (≈ 1.44 µM)
MIC Coagulase Negative Staphylococcus (GC 4548) (Staphylococcus sp.): 1 µg/mL (≈ 0.72 µM)
MIC Coagulase Negative Staphylococcus (GC 4549) (Staphylococcus sp.): 1 µg/mL (≈ 0.72 µM)
MIC Coagulase Negative Staphylococcus (GC 4551) (Staphylococcus sp.): 2 µg/mL (≈ 1.44 µM)
MIC Enterococcus avium (GC 4558) (Enterococcus sp.; Enterococcus avium (GC 4558)): 4 µg/mL (≈ 2.88 µM)
MIC Enterococcus faecalis (ATCC 29212) (Enterococcus sp.; [1]): 4 µg/mL (≈ 2.88 µM)
MIC Enterococcus faecalis (GC 2242) (Enterococcus sp.; [2]): 0.5 µg/mL (≈ 0.36 µM)
MIC Enterococcus faecalis (GC 2691) (Enterococcus sp.; [3]): 4 µg/mL (≈ 2.88 µM)
MIC Enterococcus faecalis (GC 3059) (Enterococcus sp.; [4]): 2 µg/mL (≈ 1.44 µM)
MIC Enterococcus faecalis (GC 4552) (Enterococcus sp.; [5]): 2 µg/mL (≈ 1.44 µM)
MIC Enterococcus faecalis (GC 4553) (Enterococcus sp.; [6]): 4 µg/mL (≈ 2.88 µM)
MIC Enterococcus faecalis (GC 4554) (Enterococcus sp.; [7]): 4 µg/mL (≈ 2.88 µM)
MIC Enterococcus faecalis (GC 6189) (Enterococcus sp.; [8]): 2 µg/mL (≈ 1.44 µM)
MIC Enterococcus faecium (GC 2243) (Enterococcus sp.; Enterococcus faecium (GC 2243)): 4 µg/mL (≈ 2.88 µM)
MIC Enterococcus faecium (GC 4556) (Enterococcus sp.; Enterococcus faecium (GC 4556)): 4 µg/mL (≈ 2.88 µM)
MIC Enterococcus faecium (GC 4557) (Enterococcus sp.; Enterococcus faecium (GC 4557)): 2 µg/mL (≈ 1.44 µM)
MIC Enterococcus avium (GC 4558) (Enterococcus sp.; [9]): 4 µg/mL (≈ 2.88 µM)
MIC Enterococcus faecalis (ATCC 29212) (Enterococcus sp.; [9]): 4 µg/mL (≈ 2.88 µM)
MIC Enterococcus faecalis (GC 2242) (Enterococcus sp.; [9]): 0.5 µg/mL (≈ 0.36 µM)
MIC Enterococcus faecalis (GC 2691) (Enterococcus sp.; [9]): 4 µg/mL (≈ 2.88 µM)
MIC Enterococcus faecalis (GC 3059) (Enterococcus sp.; [9]): 2 µg/mL (≈ 1.44 µM)
MIC Enterococcus faecalis (GC 4552) (Enterococcus sp.; [9]): 2 µg/mL (≈ 1.44 µM)
MIC Enterococcus faecalis (GC 4553) (Enterococcus sp.; [9]): 4 µg/mL (≈ 2.88 µM)
MIC Enterococcus faecalis (GC 4554) (Enterococcus sp.; [9]): 4 µg/mL (≈ 2.88 µM)
MIC Enterococcus faecalis (GC 6189) (Enterococcus sp.; [9]): 2 µg/mL (≈ 1.44 µM)
MIC Enterococcus faecium (GC 2243) (Enterococcus sp.; [9]): 4 µg/mL (≈ 2.88 µM)
MIC Enterococcus faecium (GC 4556) (Enterococcus sp.; [9]): 4 µg/mL (≈ 2.88 µM)
MIC Enterococcus faecium (GC 4557) (Enterococcus sp.; [9]): 2 µg/mL (≈ 1.44 µM)
MIC Streptococcus agalactiae (GC 4564) (Streptococcus sp.; [10]): 0.12 µg/mL (≈ 0.0864 µM)
MIC Streptococcus pneumoniae (ATCC 6301) (Streptococcus sp.; [11]): <0.06 µg/mL
MIC Streptococcus pneumoniae (GC 1894) (Streptococcus sp.; [12]): <0.06 µg/mL
MIC Streptococcus pneumoniae (GC 4565) (Streptococcus sp.; [13]): <0.06 µg/mL
MIC Streptococcus pyogenes (GC 4563) (Streptococcus sp.; [14]): <0.06 µg/mL
MIC Streptococcus agalactiae (GC 4564) (Streptococcus sp.; [9]): 0.12 µg/mL (≈ 0.0864 µM)
MIC Streptococcus pneumoniae (ATCC 6301) (Streptococcus sp.; [9]): <0.06 µg/mL
MIC Streptococcus pneumoniae (GC 1894) (Streptococcus sp.; [9]): <0.06 µg/mL
MIC Streptococcus pneumoniae (GC 4565) (Streptococcus sp.; [9]): <0.06 µg/mL
MIC Streptococcus pyogenes (GC 4563) (Streptococcus sp.; [9]): <0.06 µg/mL
Structure (SMILES): N=C1NCC(C(O)C2NC(=O)C(Cc3ccc(OC4OC(CO)C(OC5OC6COC(Cc7ccccc7)OC6C(O)C5O)C(O)C4O)cc3)NC(=O)C(CC3CCCCC3)NC(=O)CNC(=O)C(CO)NC(=O)C(C(O)C3CNC(=N)N3C3OC(CO)C(O)C(O)C3O)NC2=O)N1 (stereo not drawn) [Example 200, Cyclo[3-cyclohexylalanyl-O-[4-O-[4,6-O-phenethylidene-hexopyranosyl]hexopyranosyl]tyrosyl-3-(2-iminoimidazolidin-4-yl)seryl-3-(3-hexopyranosyl-2-iminoimidazolidin-4-yl)serylserylglycyl]]
MIC Staphylococcus haemolyticus (GC 4546) (Staphylococcus sp.): 1 µg/mL (≈ 0.72 µM)
